Experimental data: US9867798B2, “Ladostigil therapy for immunomodulation” (priority 2012, dated 2018)
Several values for one entry are separate records, joined by “and”; a condition that tells them apart may be missing. Identical values can stand only once.

Key:
ChE [1] = test: ChE inhibition in heart or brain of treated rats; type: in vivo
[2] = test system: Psammomys obesus gerbils on high-energy diet; test: Diabetes in gerbils on high-energy diet: glucose, insulin, pancreatic islets; type: in vivo; parameters: Change in glucose: unit: mg/dL
Procedure: Male Psammomys obesus gerbils aged 3.5-4 months were given a high-energy diet consisting of 938.5 g/Kg version of 2018SC+F Harlan Tekled Ltd., USA, supplemented with soybean oil to a final fat concentration of 6%. After one week on the diet, blood was taken for measurement of glucose and ChE activity. Half of the animals were given ladostigil (17 mg/kg/day) by gavage while the remainder received tap water by the same route. Blood was taken from the tail once weekly for measurement of glucose as described in Kalman R., et al, (2001). Lab Anim. 35:346-352. After three weeks of treatment the animals they were deeply anesthetized, blood was taken by cardiac puncture for measurement of ChE activity, glucose and insulin levels and the pancreas removed for section and staining with haematoxylin and eosin and the number of islets counted. Blood glucose of 11 animals had reached values exceeding 200 mg/dL after one week on the high energy diet and the average value for the whole group was 300±27 mg/dL. […] It is noted, that cholinesterase activity in plasma of Psammomys obesus is mostly mediated by butyrylcholinesterase (BuChE) rather than by AChE.

ChE [3] = test: Cholinesterase activity in spleen and plasma of mice (Example 4); type: in vivo, Balb-C mice; details: 10 mg/kg oral, two hours, ± SD, not significant
Procedure: Ladostigil 10 mg/kg or saline 1 mg/kg were given by gavage to groups of 6 Balb-C male mice weighing 24-30 gm. The mice were sacrificed 120 min later when ChE inhibition reaches its peak. The spleen was rapidly removed and weighed and blood was centrifuged at 14000 rpm at room temperature for 4 min to provide plasma. Phosphate buffer was added to the spleen at a ratio of 1 mg/ml and the tissue was homogenized at a speed of 24,000 rpm in cold phosphate buffer pH=7 containing 0.1% Triton and centrifuged at 14000 rpm. Aliquots of plasma and the supernatant from the spleen were incubated with acetylthiocholine and dinitro benzoic acid in phosphate buffer pH 7 and the rate of development of the yellow color was measured as described by Ellman et al, (1961). Percent inhibition of ChE activity was calculated by comparison with that of control mice given with saline. Protein concentration was determined by means of Bradford reagent (Bio-RAD, 500-0006) and results represented as activity/mg protein.

[4] = test system: LPS-induced TNF-α, IL-1β and IL-6 in spleen; test: Cytokines in spleen of mice injected with LPS, comparison to rivastigmine (Example 5); type: in vivo, Balb/c mice; details: for IL-1β in spleen / IL-6 in spleen / TNF-α in spleen: four hours
Procedure: Male Balb/c mice (aged 8-9 weeks, weighing 25-30 gm) were given ladostigil (10 or 20 mg/kg) or rivastigmine (0.5 or 1 mg/kg) by gavage, or water (1 ml/100 g), followed 15 min later by an intra-peritoneal injection of LPS (10 mg/kg). Control mice were given LPS and water by gavage (1 ml/100 g). For measurement of cytokine levels in the spleen and blood the mice were sacrificed 4 h after drug administration, blood collected in heparinized tubes and centrifuged to obtain plasma and the spleen was rapidly removed and weighed. Plasma and spleen were frozen in liquid nitrogen and stored at −80° C. until use. For measurement of cytokine levels, the tissue was diluted in PBS containing 0.8% NaCl, 0.144% NaHPO4, 0.024% KH2PO4 and protease inhibitor cocktail (Sigma Israel, P8340) and homogenized in an Ultra-TURRAX® homogenizer at a speed of 24,000 rpm, centrifuged at 14000 g for 15 min at 4° C. Cytokines were detected in the supernatant by using ELISA kits for cytokines IL-1β, IL-6, and TNF-α (Biolegend) following the manufacturer's protocol. Each experiment was performed twice with 8 replicate measures in each experiment. Protein concentration in each sample was determined with Bradford reagent (Bio-RAD, 500-0006).

IL-1β and MPO in colon = test: Cytokines and myeloperoxidase in colon of DSS-treated mice; type: in vivo; details: 8th day of DSS ingestion, 5 vs 10 mg/kg
Procedure: TNF-α, IL-6, and IL-1β levels in homogenized colon were measured by means of a BioLegend ELISA Mouse kit. One cm of colon was homogenized in ice-cold PBS buffer containing protease inhibitor cocktail (Sigma, St. Louis, Mo., USA; dilution 1:100) using a Polytron homogenizer, and then centrifuged for 15 min at 14,000 rpm at 4° C. Supernatants were diluted 1:5 in diluent buffer supplied in the kit and applied to 96-well MaxiSorb Elisa plates according to manufacturer's protocol. Total protein concentration in the tissue supernatant was measured by means of a BCA kit. Levels of cytokines are expressed as pg/mg total tissue protein.
Neutrophil infiltration was monitored by measuring myeloperoxidase (MPO) activity in colon segments according to the protocol described by Bradley (1982) in 96-well micro-titer plates by mixing 10 μl of the supernatant with 290 μl of o-dianisidine dihydrochloride solution. Data were interpolated from a MPO standard curve. MPO activity was expressed as units per μg total protein measured in the sample by Pierce BCA Protein Assay Kit as described above.

[5] = ladostigil 10 mg/kg + LPS 10 mg/kg
[6] = ladostigil 20 mg/kg + LPS 10 mg/kg

Question: With `C#CCN[C@@H]1CCc2ccc(OC(=O)N(C)CC)cc21` [Ladostigil, R(+)-6-(N-methyl, N-ethyl-carbamoyloxy)-N′-propargyl-1-aminoindan] as the molecule, how does the “ChE inhibition in the heart or brain” value (ChE [1]; 1 mg/kg/day) read?
Answer: The value was “No significant ChE inhibition”.

Question: What about the ChE activity inhibited (ChE [1]; 8.5 mg/kg/day) of the same molecule?
Answer: Its ChE activity inhibited is 30%.

Question: And the Blood glucose levels ([2]; 17 mg/kg/day, three weeks)?
Answer: Its Blood glucose levels is “decrease in blood glucose levels in all six animals”.

Question: What about the “Insulin after 3 weeks of treatment” value ([2]; individual gerbils, 17 mg/kg/day) of the same molecule?
Answer: Its value is 132 mU/L and 126.6 mU/L and 124.6 mU/L and 85.3 mU/L and 172 mU/L and 135.3 mU/L.

Question: What about the “Glucose after 3 weeks of treatment” value ([2]; individual gerbils, 17 mg/kg/day by gavage, 17 mg/kg/day) of the same molecule?
Answer: The value was 284 mg/dL and 250 mg/dL and 180 mg/dL and 311 mg/dL and 222 mg/dL and 266 mg/dL.

Question: What about the Change in glucose ([2]; individual gerbils, 17 mg/kg/day, after 3 weeks vs before, 17 mg/kg/day) of the same molecule?
Answer: The Change in glucose was −136 and −23 and −20 and −41 and −65 and −19.

Question: And the No of islets ([2]; individual gerbils, 17 mg/kg/day, after 3 weeks, 17 mg/kg/day)?
Answer: Its No of islets is 42 and 117 and 79 (2×) and 99 and 87.

Question: What about the Glucose before treatment ([2]; individual gerbils, baseline after one week of high energy diet, group later given 17 mg/kg, 17 mg/kg) of the same molecule?
Answer: Its Glucose before treatment is 420 mg/dL and 273 mg/dL and 200 mg/dL and 352 mg/dL and 287 mg/dL and 285 mg/dL.

Question: And the “Inhibition of ChE in plasma” value (ChE [3])?
Answer: The value was 5.7±2.1%.

Question: And the “Inhibition of ChE in spleen” value (ChE [3])?
Answer: The value was 7.8±6.4%.

Question: What about the “Reduction of IL-1β levels in spleen” value ([4]; ladostigil 10 mg/kg + LPS) of the same molecule?
Answer: Its value is 31.1±4.3%.

Question: And the “Reduction of IL-6 levels in spleen” value ([4]; ladostigil 10 mg/kg + LPS)?
Answer: Its value is 50.0±7.2%.

Question: And the “Reduction of TNF-α levels in spleen” value ([4]; ladostigil 10 mg/kg + LPS)?
Answer: Its value is 49.7±7.6%.

Question: And the IL-1β in spleen [4, 5]?
Answer: The IL-1β in spleen was 401 ± 40 pg/mg.

Question: What about the IL-6 in spleen [4, 5] of the same molecule?
Answer: The IL-6 in spleen was 351 ± 50 pg/mg.

Question: What about the TNF-α in spleen [4, 5] of the same molecule?
Answer: The TNF-α in spleen was 9.6 ± 1.5 pg/mg.

Question: And the “Effect on TNF-α or IL-1β levels in spleen” value ([4]; ladostigil 20 mg/kg + LPS)?
Answer: The value was “had no effect”.

Question: What about the “Reduction of IL-6 levels in spleen” value ([4]; ladostigil 20 mg/kg + LPS) of the same molecule?
Answer: The value was 42.7±8.3%.

Question: And the IL-1β in spleen [4, 6]?
Answer: The IL-1β in spleen was 591 ± 17 pg/mg.

Question: And the IL-6 in spleen [4, 6]?
Answer: Its IL-6 in spleen is 454 ± 59 pg/mg.

Question: And the TNF-α in spleen [4, 6]?
Answer: The TNF-α in spleen was 17.1 ± 1.9 pg/mg.

Question: And the “Reduction of IL-1β levels and MPO activity in colon” value (IL-1β and MPO in colon)?
Answer: The value was 5 mg/kg was more effective than 10 mg/kg.
